Experimental data from PubChem BioAssay AID1259407 (Chemical Carcinogenesis Research Information System (CCRIS), 2018).
Calls of active or inactive are those of the source. The rule behind the calls is not given here.

Tested on: CCRIS mutagenicity, Ames/micronucleus/aberration tests
Assay: CCRIS mutagenicity studies
Settings: Test System: AMES SALMONELLA TYPHIMURIUM, Method: PREINCUBATION

Measured: mutagenic call

c1ccc(N(c2ccccc2)c2ccccc2)cc1
inactive: Strain/Indicator: TA97, Metabolic Activation: HAMSTER, LIVER, S-9, AROCLOR 1254 (10 OR 30%) inactive; negative | Strain/Indicator: TA97, Metabolic Activation: NONE inactive; negative | Strain/Indicator: TA97, Metabolic Activation: RAT, LIVER, S-9, AROCLOR 1254 (10 OR 30%) inactive; negative | Strain/Indicator: TA98, Metabolic Activation: HAMSTER, LIVER, S-9, AROCLOR 1254 (10%) inactive; negative | Strain/Indicator: TA98, Metabolic Activation: HAMSTER, LIVER, S-9, AROCLOR 1254 (10 OR 30%) inactive; negative | Strain/Indicator: TA98, Metabolic Activation: NONE inactive; negative | Strain/Indicator: TA98, Metabolic Activation: RAT, LIVER, S-9, AROCLOR 1254 (10%) inactive; negative | Strain/Indicator: TA98, Metabolic Activation: RAT, LIVER, S-9, AROCLOR 1254 (10 OR 30%) inactive; negative | Strain/Indicator: TA100, Metabolic Activation: HAMSTER, LIVER, S-9, AROCLOR 1254 (10%) inactive; negative | Strain/Indicator: TA100, Metabolic Activation: HAMSTER, LIVER, S-9, AROCLOR 1254 (10 OR 30%) inactive; negative | Strain/Indicator: TA100, Metabolic Activation: NONE inactive; negative | Strain/Indicator: TA100, Metabolic Activation: RAT, LIVER, S-9, AROCLOR 1254 (10%) inactive; negative | Strain/Indicator: TA100, Metabolic Activation: RAT, LIVER, S-9, AROCLOR 1254 (10 OR 30%) inactive; negative | Strain/Indicator: TA1535, Metabolic Activation: HAMSTER, LIVER, S-9, AROCLOR 1254 (10%) inactive; negative | Strain/Indicator: TA1535, Metabolic Activation: HAMSTER, LIVER, S-9, AROCLOR 1254 (10 OR 30%) inactive; negative | Strain/Indicator: TA1535, Metabolic Activation: NONE inactive; negative | Strain/Indicator: TA1535, Metabolic Activation: RAT, LIVER, S-9, AROCLOR 1254 (10%) inactive; negative | Strain/Indicator: TA1535, Metabolic Activation: RAT, LIVER, S-9, AROCLOR 1254 (10 OR 30%) inactive; negative | Strain/Indicator: TA1537, Metabolic Activation: HAMSTER, LIVER, S-9, AROCLOR 1254 (10%) inactive; negative | Strain/Indicator: TA1537, Metabolic Activation: HAMSTER, LIVER, S-9, AROCLOR 1254 (10 OR 30%) inactive; negative | Strain/Indicator: TA1537, Metabolic Activation: NONE inactive; negative | Strain/Indicator: TA1537, Metabolic Activation: RAT, LIVER, S-9, AROCLOR 1254 (10%) inactive; negative | Strain/Indicator: TA1537, Metabolic Activation: RAT, LIVER, S-9, AROCLOR 1254 (10 OR 30%) inactive; negative
